Read-outs that look alike come from different tables or passages of the source. One block for each molecule: values may come before it. Non-standard residues stand in square brackets, D forms with d. Residues, ends and D or L forms follow the SMILES beside them. No end group written: not given here.
Tests used:
ET receptor = conditions: allergic sheep; cited from earlier work
ETA = conditions: endotoxic shock, mouse; cited from earlier work
isolated rat hearts = conditions: cited from earlier work; for preischemic increase in coronary perfusion pressure induced by big ET-1 and its preischemic effect: phosphoramidon (IC50 =100 μM), BQ-123 0.3 μM; for time to contracture in globally ischemic rat hearts: 30 pMol ET-1 or 10 nMol big ET-1 pretreatment; for IC50: isolated rat hearts, read-out: IC50, reduction of coronary flow
SHR = conditions: IV infusion; cited from earlier work
human ECE-1 = molecular target: T1, human ECE-1 (Homo sapiens, UniProt P42892); assay: ECE-1 Assay (ET-1 formed from big ET-1, by Elisa); type: biochemical; conditions: solubilized membrane fraction of CHO/human ECE-1 cells, 0.1 μM big ET-1, pH 7.0, 1 hour at 37° C.
T1 construct: expressed in transfected cells
T1 sequence (P42892 1-770): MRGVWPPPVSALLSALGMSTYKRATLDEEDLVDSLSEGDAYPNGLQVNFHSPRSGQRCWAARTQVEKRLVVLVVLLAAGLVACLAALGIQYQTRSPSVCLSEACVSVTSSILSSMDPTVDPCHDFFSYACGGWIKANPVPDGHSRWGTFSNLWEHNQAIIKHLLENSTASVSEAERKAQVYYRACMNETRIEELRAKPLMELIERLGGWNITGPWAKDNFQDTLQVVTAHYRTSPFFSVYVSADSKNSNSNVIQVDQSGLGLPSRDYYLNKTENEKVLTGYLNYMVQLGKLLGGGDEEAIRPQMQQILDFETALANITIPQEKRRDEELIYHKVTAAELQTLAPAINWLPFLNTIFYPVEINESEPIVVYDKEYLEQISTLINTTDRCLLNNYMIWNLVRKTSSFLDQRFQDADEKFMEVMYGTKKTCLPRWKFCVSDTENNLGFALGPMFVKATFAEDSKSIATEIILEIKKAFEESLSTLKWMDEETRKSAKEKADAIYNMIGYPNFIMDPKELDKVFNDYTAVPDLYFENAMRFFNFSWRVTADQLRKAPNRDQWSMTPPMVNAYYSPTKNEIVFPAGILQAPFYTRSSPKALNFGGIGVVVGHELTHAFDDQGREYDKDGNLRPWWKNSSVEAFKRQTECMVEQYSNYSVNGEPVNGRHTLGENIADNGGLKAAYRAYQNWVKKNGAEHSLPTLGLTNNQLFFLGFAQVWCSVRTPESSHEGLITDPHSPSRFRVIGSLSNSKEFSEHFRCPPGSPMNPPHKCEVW
Experimental: All cells were grown in a humidified incubator at 37° C. in an atmosphere of 5% CO2/95% air. The membrane fractions from CHO cells were prepared as described in (Cell 1994; (78):473-485). ECE-1 Assay […] The final concentration of DMSO was 1.5%. […] This final mixture was then directly analyzed for the amount of ET-1 by enzyme-linked immunosorbant assay (Elisa).

endothelin = conditions: rats; cited from earlier work
[1] = system: vasoconstrictor effects evoked by big ET-1; conditions: anaesthetized pigs; cited from earlier work
[2] = system: hemodynamic actions of big ET-1; conditions: rat brain; cited from earlier work
infarct size = conditions: IV, 24 hour postischemia; cited from earlier work
[3] = system: pressor response of big ET-1; conditions: ganglion-blocked anesthetized rats; cited from earlier work
[4] = system: effects of big ET-1 in the microvasculature; conditions: anesthetized hamsters; cited from earlier work
[5] = system: pressor response of big ET; conditions: cited from earlier work
[6] = system: pulmonary vascular resistance; conditions: young piglets; cited from earlier work
[7] = system: effects of intracisternal big ET-1; conditions: anesthetized dogs; cited from earlier work
ECE = ECE in vitro, cited from earlier work
[8] = system: lethality induced by big ET-1; conditions: in vivo; cited from earlier work
[9] = in vivo; cited from earlier work
vascular strips = conditions: cited from earlier work
gastric mucosa = conditions: 50 to 500 pmol/kg into the left gastric artery; cited from earlier work

Molecule: CC(C)C[C@@H]1NC(=O)[C@@H](C(C)C)NC(=O)[C@@H]2CCCN2C(=O)[C@@H](CC(=O)O)NC(=O)[C@@H](Cc2c[nH]c3ccccc23)NC1=O [BQ-123] (cyclo(L[dW][dD]P[dV]))
- ET-1-induced bronchoconstriction and tracheal smooth muscle contraction (ET receptor): block ET-1-induced bronchoconstriction and tracheal smooth muscle contraction in allergic sheep
- survival rate (ETA): significantly increased the survival rate in this model
- preischemic increase in coronary perfusion pressure induced by big ET-1 and its preischemic effect (isolated rat hearts): abolished the preischemic increase in coronary perfusion pressure induced by big ET-1 as well as its preischemic effect

Molecule: O=P(O)(O)CNC(Cc1ccc(-c2ccccc2)cc1)c1nn[nH]n1 (stereo not drawn) [CGS 26303]
- antihypertensive responses in the SHR (SHR): effective at lowering the antihypertensive responses in the SHR

- IC50 (human ECE-1): 1300 nM
Molecule: COc1cc(C(=O)O)nc(-c2csc(CCCCCC(C)O)n2)c1OC (stereo not drawn) [Example 1, 6-[2-(6-Hydroxy-heptyl)-thiazol-4-yl]-4,5-dimethoxy-pyridine-2-carboxylic acid]

- IC50 (human ECE-1): 1900 nM
Molecule: COc1cc(C(=O)O)nc(-c2csc(C)n2)c1OC [Example 2, 6-(2-Methyl-thiazol-4-yl)-4,5-dimethoxy-pyridine-2-carboxylic acid]

- IC50 (human ECE-1): 1300 nM
Molecule: CCCCCCCc1nc(-c2nc(C(=O)O)cc(OC)c2OC)cs1 [Example 3, 6-(2-Heptyl-thiazol-4-yl)-4,5-dimethoxy-pyridine-2-carboxylic acid]

- IC50 (human ECE-1): 1000 to 5000 nM
Molecule: COc1cc(C(=O)O)nc(-c2csc(N)n2)c1OC [Example 4, 6-(2-Amino-thiazol-4-yl)-4,5-dimethoxy-pyridine-2-carboxylic acid]

- IC50 (human ECE-1): 1000 to 5000 nM
Molecule: CNc1nc(-c2nc(C(=O)O)cc(OC)c2OC)cs1 [Example 5, 6-(2-N-Methylamino-thiazol-4-yl)-4,5-dimethoxy-pyridine-2-carboxylic acid]

- IC50 (human ECE-1): 5000 to 10000 nM
Molecule: COc1cc(C(=O)O)nc(-c2cscn2)c1OC [Example 6, 6-(Thiazol-4-yl)-4,5-dimethoxy-pyridine-2-carboxylic acid]

Molecule: COc1cccc(Oc2c(NS(=O)(=O)c3ccc(C(C)(C)C)cc3)ncnc2OCCO)c1 [RO 46-2005]
- efficacy in acute renal ischemia and subarachnoid hemorrhage (endothelin): effective in models of acute renal ischemia and subarachnoid hemorrhage in rats

Molecule: CC(C)C[C@H](NP(=O)(O)O[C@@H]1O[C@@H](C)[C@H](O)[C@@H](O)[C@H]1O)C(=O)N[C@@H](Cc1c[nH]c2ccccc12)C(=O)O [phosphoramidon]
- plasma ET-1 level [1]: did not have any effect on the plasma ET-1 level
- vasoconstrictor effects evoked by intravenous injections of big ET-1 [1]: inhibit vasoconstrictor effects evoked by intravenous injections of big ET-1
- inhibition of hemodynamic actions of big ET-1 [2]: phosphoramidon sensitive inhibition of hemodynamic actions of big ET-1 in rat brain
- infarct size (infarct size): significantly reduce infarct size 24 hour postischemia
- pressor response of big ET-1 [3]: blocked by phosphoramidon in a dose-dependent manner
- effects of big ET-1 in the microvasculature [4]: inhibit the effects of big ET-1 in the microvasculature of anesthetized hamsters
- inhibition of effects of ET-1 (versus big ET-1) ([5]; in all cases (studies cited in b8)): inhibited the effects of big ET-1 and not ET-1
- block of the pressor response of big ET ([5]; micromolar concentrations, in vitro and in vivo): block the pressor response of big ET both in vitro and in vivo
- elevated pulmonary vascular resistance after cardiopulmonary bypass [6]: reduce elevated pulmonary vascular resistance after cardiopulmonary bypass
- decreased basilar artery caliber and elevated systemic arterial pressure by intracisternal big ET-1 [7]: These effects were blocked by phosphoramidon
- IC50 (ECE): ~1000 nM
- IC50 (ECE; listed as Phosphoramidon): 1000 nM
- preischemic increase in coronary perfusion pressure induced by big ET-1 and its preischemic effect (isolated rat hearts): abolished the preischemic increase in coronary perfusion pressure induced by big ET-1 as well as its preischemic effect
- lethality induced by intravenous infusion of big ET-1 [8]: suppress the lethality induced by the intravenous infusion of big ET-1

Molecule: Big ET: 38 (human) or 39 (porcine) amino acid peptide known as big endothelin or proendothelin (CSCSSLMDKECVYFCHLDIIWVNTPEHVVPYGLGSPRS; ends and bridges not checked; cysteine pairing not given here; UniProt P05305 53-90, looked up)
- potency relative to ET-1 at raising blood pressure [9]: equally potent in vivo at raising blood pressure
- potency relative to ET-1 in inducing contractile activity (vascular strips): 1%
- time to contracture in globally ischemic rat hearts (isolated rat hearts): significantly reduced the time to contracture
- IC50 (isolated rat hearts): 2 nM

Molecule: ET-1: a potent vasoconstrictor, is a 21 amino acid bicyclic peptide
- gastric mucosal hemorrhagic change (gastric mucosa): induced gastric mucosal hemorrhagic change in a dose-dependent manner
- tissue type plasminogen activator release and platelet activating formation (gastric mucosa): increased the tissue type plasminogen activator release and platelet activating formation
- time to contracture in globally ischemic rat hearts (isolated rat hearts): significantly reduced the time to contracture
- IC50 (isolated rat hearts): 0.012 nM
